Patent US12415184B2, “Device for analysis of cellular motility” (MOTILITYCOUNT APS, priority 2013, dated 2025)

Test system: sperm cells
Test: effects of detection agents on the motility of sperm cells (microscopic analysis)
Type: cell-based
Conditions: 60 min, ambient temperature; for Cells: cells in total / Cells: motile cells: 50:50 with sperm sample 60/72
Method: The possible effects of two detection agents, MTT and crystal violet, on the motility of sperm cells were tested. Stock solutions of MTT and crystal violet of 5 mg/ml and 1 mg/ml, respectively, were prepared, and these were diluted two-fold serially. The detection agent solutions were mixed with sperm samples comprising 60 million motile cells per milliliter and 72 million cells per milliliter in total (denoted 60/72) in a 50:50 ratio and the mixtures were incubated for 60 min at ambient temperature before analysing the cells microscopically.

## CN(C)c1ccc(C(=C2C=CC(=[N+](C)C)C=C2)c2ccc(N(C)C)cc2)cc1 [Crystal violet, crystal violet]
Crystal violet 0.125 mg/ml
  Cells: cells in total: 56 million per milliliter
  Cells: motile cells: 37 million per milliliter
Crystal violet 0.25 mg/ml
  Cells: cells in total: 56 million per milliliter
  Cells: motile cells: 32 million per milliliter
Crystal violet 0.5 mg/ml
  Cells: cells in total: 43 million per milliliter
  Cells: motile cells: 27 million per milliliter
Crystal violet 1 mg/ml
  Cells: cells in total: 63 million per milliliter
  Cells: motile cells: 40 million per milliliter
Concentrations of Table 3
  ratio of motile versus non-motile cells (% motile): not affected
